In one test the test system is HiBiT-GPCRs. In words: NanoBRET saturation ligand-engagement assay in HEK293. Format: binding, human. The source says:
Metabotropic GRM1 glutamate receptor, metabotropic 1 glutamate GRM2 glutamate receptor, metabotropic 2
GRM3 glutamate receptor, metabotropic 3
GRM4 glutamate receptor, metabotropic 4
GRM5 glutamate receptor, metabotropic 5
GRM7 glutamate receptor, metabotropic 7
GRM8 glutamate receptor, metabotropic 8
Glucagon ADCYAP1R1 adenylate cyclase activating polypeptide 1
(pituitary) receptor type I
Lutropin- LHCGR luteinizing hormone/choriogonadotropin choriogonadotropin receptor
Cysteinyl leukotriene CYSLTR1 cysteinyl leukotriene receptor 1
CYSLTR2 cysteinyl leukotriene receptor 2
Cell culture and transfection
HEK293 cells were obtained from American Type Culture Collection (ATCC) and cultured at 37 °C/5% CO2 in Dulbecco's Modified Eagle Medium (DMEM) (Gibco) supplemented with 10% fetal bovine serum (Seradigm) and 100 units/mL of penicillin-streptomycin (Gibco). Transfections were carried out using Viafect (Promega) at a 1:3 DNA/transfection reagent ratio. Generally, DNA encoding HiBiT-GPCR fusion was diluted 1:100 in promoterless carrier DNA. […]
in the presence of 30 μM competing unmodified compound for 90 min at room temperature. […] Filtered luminescence was then measured using GloMax Discover microplate reader (Promega) equipped with a 450-nm (8-nm band pass) filter (donor) and a 600-nm long pass filter (acceptor). BRET was calculated by dividing the acceptor emission by the donor emission. […]

The subject of test [1] is 184 HiBiT-GPCRs from 51 families. In words: NanoBRET screen, binding profile across the HiBiT-GPCR library. Also on record: species or system human. Particulars: screen at 1 μM and 0.1 μM tracer. As to the method: Each tracer candidate was screened across the entire library of HiBiT-GPCR constructs using NanoBRET as the detection modality. As depicted in Figure 4A, the specificity of interactions was evaluated through decrease in BRET due to competitive displacement of a bound tracer by excess parental compound. Each tracer was analyzed for binding to each HiBiT-GPCR fusion in the absence and in the presence of competing parental compound. Briefly, HEK293 cells were transfected with HiBiT-GPCR constructs diluted into promoterless DNA to reduce expression and maximize translocation to the cell surface. Each tracer candidate was then screened at concentrations of 1 μM and 0.1 μM across cells expressing these fusions. Cells were treated for 1.5 h with tracer either alone or in the presence of 20 μM competing parental compound (i.e., control). BRET was measured upon addition of purified LgBiT and subsequent complementation with HiBiT genetically fused to a GPCR. The specificity of interactions was assessed through a decrease in BRET signal due to competitive displacement of the bound tracer. To further gauge the robustness of these interactions, the fold response over the control (i.e., BRETtracer/BRETcontrol) was calculated. We chose a 1.5-fold response, which translates to ≥7-fold signal over noise as the minimal threshold required to score an interaction as positive. […]. […]
(BRET reads energy transfer from a luciferase to a nearby fluorophore.)

Molecules are shown by their SMILES.

With `O=C(CCOCCOCCOCCOCCNC(=O)CCc1ccc2n1[B-](F)(F)[N+]1=C(c3ccc[nH]3)C=CC1=C2)NCCCN1CCN(C2=Nc3cc(Cl)ccc3Nc3ccccc32)CC1` [Clozapine-a-2-NB590], the Concentration-dependent binding result in the test on HiBiT-GPCRs (ADRA2A and HTR1D, competing Clozapine (30 μM)) is given as “specific but suffered from high background”. Also, the EC50 with HiBiT-GPCRs (range over 17 of the 19 GPCRs, background corrected with competing Clozapine (30 μM), read-out: EC50 values (concentration-dependent tracer binding)) was 1 to 600 nM. `CN(CCC=C1c2ccccc2CCc2ccccc21)C(=O)CCOCCOCCOCCOCCNC(=O)CCc1ccc2n1[B-](F)(F)[N+]1=C(c3ccc[nH]3)C=CC1=C2` [Amitriptyline-e-2-NB590]: in test [1], the “Number of GPCRs with specific interactions (≥[…] response)” value is “no specific interactions”.

These data come from PMC8151276, “An Integrated Approach toward NanoBRET Tracers for Analysis of GPCR Ligand Engagement” (Molecules, 2021).
